The text below walks through data of patent publication US9096594B2, “Kinase inhibitors and methods of use thereof” (priority 2012, dated 2015).

Values after ≈ are worked out from the molar mass of the structure shown. Where two headings read alike, the source gives them in different places.

By IC50 is commonly meant the concentration needed to halve the response being measured. What is called fraction unbound is the share of the substance not bound to proteins or other matrix. Low readings indicate extensive binding, high ones weak binding. A word on the solubility: it is the concentration that dissolves in the medium under given conditions. Read a high solubility as a readily soluble substance. Usually Kd stands for a measure of binding affinity in units of concentration. Broadly, the % Inhibition is how much of the control response was suppressed. A high value points to strong suppression.

For data set [1], the target named is T1, GSK3β (Homo sapiens (Human), UniProt P49841). The data set can be described thus: biochemical.
Data set [2] addresses T1, GSK3β. Nature of the data set: biochemical. The source holds these as a separate data set.
Description: GSK3β Microfluidic Mobility-Shift Assay
(§1) Reactions were terminated by the addition of 10 mM EDTA. Substrate and product were separated electrophoretically and fluorescence intensity of the substrate and product was determined by Labchip EZ Reader II (Caliper Life Sciences, MA). The kinase activity was measured as percent conversion. The reactions were performed in duplicate for each sample. […] The results were analyzed by Genedata Assay Analyzer. The percent inhibition was plotted against the compound concentration and the IC50 value was determined from the logistic dose-response curve fitting.
A further data set is described as follows: in vitro. The following applies: mouse, mouse plasma, pH 7.4.
A further data set in a line: physchem. As to conditions: PBS, no DMSO, pH 7.4, aqueous buffer, thermodynamic from solid.
In data set [3] the target is T1, GSK3β. Nature of the data set: biochemical. The source holds these as a separate data set.
Data set [4] concerns the target T2, CK1δ (Homo sapiens (Human), UniProt P48730). Nature of the data set: biochemical.
Excerpt: (§2) Approximately 20,000 Response Units (RU) of anti GST-antibody (GE Healthcare Life Sciences) were immobilized on Flow Cell (FC) 1 and FC2 of a new, freshly conditioned CM5 Sensor Chip (GE Healthcare Life Sciences) in a Biacore T100 instrument utilizing the immobilization wizard of the T100 software package. Approximately 1,500 RU of recombinant GST (GE Healthcare Life Sciences) was then captured on FC1 utilizing the capture wizard protocol of the T100 software package. FC1 is used as a reference subtraction point for this and all SPR assays. Approximately 2,700 RU of recombinant GST-CK1δ was then captured on FC2 utilizing the capture wizard protocol of the T100 software package. FC2 is used as the active flowcell for this and all SPR assays. The analyte plate is generated in dose response fashion in TBS buffer containing a final concentration of 2% DMSO, with a final analyte concentration of 10 μM, 100 nM and 10 nM. A zero value is determined by running injections of buffer containing only 2% DMSO and no analyte. All injections are run in duplicate and are reference subtracted from FC1. A method consisting of a 60 second contact time and 60 second wash time with a flow rate of 30 μL/min was employed. […] Analysis of compounds was done using the 1:1 binding model and affinity measurements in the Biacore T100 evaluation software package.
(§3) Conditioning new chip: PBS immobilization buffer was loaded into buffer shelf and insert buffer line A. Unused CM5 sensor chip was loaded into instrument per user manual. Chip was primed with 6 minutes of buffer injection at 30 μL/min.
(§4) Primed chip again as described above. Generated anti GST antibody solution by mixing 4.5 μL anti GST antibody (GE Healthcare Life Sciences, GST Capture Kit) with 95.5 μL immobilization buffer (GE Healthcare Life Sciences, GST Capture Kit). Put solution into 700 μL small vial and cap. Repeated. Placed both vials in reagent rack 1 of Biacore T100 instrument and insert into machine per user manual. Initiated immobilization of anti GST antibody by utilizing the immobilization Wizard protocol of Biacore T100 software. Immobilized approximately 20,000 Response Units (RU) of anti GST antibody on FC1 and FC2. […] Inserted buffer line A. Repeated prime procedure. Generated GST protein solution by mixing 2 μL of recombinant GST (GE Healthcare Life Sciences, GST Capture Kit) with 98 μL TBS 2% DMSO buffer. Generated GST-CK1δ protein solution by mixing 5 μL of recombinant GST-CK1δ with 95 μL TBS 2% DMSO running buffer. Placed GST protein solution in position B1 on reagent rack 1. Placed GST-CK1δ protein solution in position Cl on reagent rack 1. Initiated a manual injection run and inject for 30 seconds at 5 μL/min GST protein solution on FC1 to generate reference flow cell. […] Captured approximately 1500 RU GST protein on FC1. Captured approximately 2700 RU GST-CK1δ protein on FC2.
(§5) An analyte plate was generated for the assay. Using a standard deep volume 384 well plate, placed 100 μL of a 10 μM analyte in TBS 2% DMSO solution wells A1 and A2. Placed 100 μL of a 50 nM analyte in TBS 2% DMSO solution in wells A3 and A4. Placed 100 μL of a 10 nM analyte in TBS 2% DMSO solution in wells A5 and A6. Placed 100 μL of TBS 2% DMSO running buffer in wells A7 and A8. Repeated steps for subsequent analytes. Placed analyte plate in Biacore T100 per user manual.
For data set [5], the target named is T1, GSK3β.
The target in data set [6] is T3, GSK3α (Homo sapiens (Human), UniProt P49840). Nature of the data set: biochemical.
Description: GSK3β Microfluidic Mobility-Shift Assay
as §1
The target of the next data set is CDK5/p25 (Homo sapiens (Human), UniProt Q00535).
In the next data set the test system is AML cell lines. The data set can be described thus: May-Grunwald Giemsa staining of AML cell lines. The data set is classed as cell-based. As to conditions: three days after treatment, vs vehicle. How it is done:
Compound 70 Induces Morphological Changes in AML Cell Lines Consistent with Myeloid Differentiation
On day three post-chemical treatment, cytospin preparations were performed. Changes in cellular morphology were evaluated by May-Grunwald Giemsa staining (Sigma Aldrich). Images were acquired by light microscopy at 400× magnification.

The next data set deals with HL-60 and U937 cells. Nature of the data set: GE-HTS myeloid differentiation signature. The following applies: HL-60 and U937, three days. In kind it is cell-based. The method, then:
HL-60 and U937 cells were treated for three days with compound 70 or vehicle. A 32-gene differentiation signature was quantified by the LMA/bead-based approach and a Weighted Summed Score (Differentiation Score) calculated for all genes was determined for each condition. Error bars denote the mean±SD of 8 replicates and statistical significance of the differences between these differentiation scores was derived using a one-way ANOVA with a Bonferroni correction.
Compound 70 Induces a Gene Expression Signature in AML Cell Lines Consistent with Myeloid Differentiation […]

Data set [7] has as its target T3, GSK3α.
Description: GSK3β Microfluidic Mobility-Shift Assay
as §1
Data set [8] deals with amphetamine-induced hyperactivity in mice. The data set can be described thus: Amphetamine-induced hyperactivity (AIH). The data set is classed as in vivo, mouse. The following applies: vs vehicle.
Data set [9] addresses T1, GSK3β. The source holds these as a separate data set.
Description: GSK3β Microfluidic Mobility-Shift Assay
as §1
The nature of data set [10]: Pharmacokinetics and brain distribution in male C57BL/6 mice. The data set is classed as in vivo, mouse. The following applies: single i.p. dose 30 mg/kg vs CHIR99021 12.5 mg/kg.
For data set [11] the following is noted: M (mouse).
Data set [12] has as its system TCF/LEF reporter in HEK293-pBARL cells. Nature of the data set: cells. The following applies: read-out: TCF/LEF (μM).
Description: HEK293-pBARL cells were derived from HEK293 cells and they stably expressed a firefly-luciferase reporter gene driven by a promoter containing 12 copies of TCF/LEF binding sequences. These cells were maintained in DMEM and supplemented with 10% FBS and 1% penicillin-streptomycin (Invitrogen). Reporter gene assays were conducted in anti-biotic free media. […] These cells also contained a renilla-luciferase reporter gene driven by the ubiquitous EF1α promoter as a control. HEK293-pBarl reporter cell lines were seeded into 384-well culture plates (Corning) at 6000 cells/well. 24 hours after plating, cells were treated overnight with relevant compounds and assayed using DualGlo assay kit (Promega). Luminescent intensities were read by EnVision (PerkinElmer, Waltham, Mass.). Firefly luciferase intensity is normalized by renilla luciferase intensity.
Cells were cultured in 384 well plates to appropriate density (40 μl total plating volume). 24 hours after plating, cells were treated with 100 nl compounds. 24 hours after incubation with compounds (48 hours after plating), assay reagents were prepared by mixing Luciferase Assay solution with Luciferase substrate and Stop & Glo solution to Stop & Glo substrate (extra reagents can be aliquoted and frozen for future use and are stable for at least one freeze/thaw cycle). […] The plate was spun down and 10 minutes were allowed for signal stabilization. Luciferase signal on the Perkin Elmer EnVision using the following parameters: Distance between plate & detector (mm)=0.2; Measurement time(s)=0.1; Glow (CT2) correction factor=0. Once the initial data is secure, a volume of Stop & Glo was added equal to each well equal to the volume of Luciferase reagent added above (If 10 μl Luciferase Reagent was added, 10 μl Stop & Glo was also added). The plate was spun down and 10 minutes were allowed for signal stabilization. The plate was read on the EnVision using the same parameters detailed above.
The target of a further data set is CDK5 (Homo sapiens (Human), UniProt Q00535). The data set can be described thus: Carna Biosciences kinase assay, CDK5. The data set is classed as biochemical.
In another data set the target is PLK1 (Homo sapiens (Human), UniProt P53350). Nature of the data set: Carna Biosciences kinase assay, PLK1. The data set is classed as biochemical.
The target in the next data set is Erk5 (Homo sapiens (Human), UniProt Q13164). Nature of the data set: Carna Biosciences kinase assay, Erk5. The data set is classed as biochemical.
The subject of a further data set is panel of 311 kinases. The data set can be described thus: Kinome-wide selectivity profile (Carna Biosciences, 311 kinases). As to conditions: 10 μM, 311 kinases. The data set is classed as biochemical.
The target in a further data set is CDK9 (Homo sapiens (Human), UniProt P50750). Nature of the data set: Carna Biosciences kinase assay, CDK9. The data set is classed as biochemical.
For another data set, the target named is LIMK1 (Homo sapiens (Human), UniProt P53667). Nature of the data set: Carna Biosciences kinase assay, LIMK1. The data set is classed as biochemical.
In data set [13] the target is T2, CK1δ.
Excerpt: as §2, §3, §4, §5
In data set [14] the target is T1, GSK3β. This is another data set of the same source.
In data set [15] the target is T3, GSK3α. As to conditions: read-out: IC50 (μM), GSK3α.
Data set [16] has as its target T1, GSK3β. This is another data set of the same source.
For data set [17], the target named is T1, GSK3β. The following applies: read-out: IC50 (μM), GSK3β.
For data set [18] the following is noted: mouse, plasma.
Description: (§6) Plasma protein binding was determined by equilibrium dialysis using the Rapid Equilibrium Dialysis (RED) device (Pierce Biotechnology, Rockford, Ill.) for both human and mouse plasma. […] Compounds were incubated at 37° C. for 5 hours with a 250 rpm orbital shake.
For another data set, the system named is GSK3. As to conditions: read-out: GSK3 IC50 of lithium; cited from earlier work.

T1 sequence (P49841 whole entry): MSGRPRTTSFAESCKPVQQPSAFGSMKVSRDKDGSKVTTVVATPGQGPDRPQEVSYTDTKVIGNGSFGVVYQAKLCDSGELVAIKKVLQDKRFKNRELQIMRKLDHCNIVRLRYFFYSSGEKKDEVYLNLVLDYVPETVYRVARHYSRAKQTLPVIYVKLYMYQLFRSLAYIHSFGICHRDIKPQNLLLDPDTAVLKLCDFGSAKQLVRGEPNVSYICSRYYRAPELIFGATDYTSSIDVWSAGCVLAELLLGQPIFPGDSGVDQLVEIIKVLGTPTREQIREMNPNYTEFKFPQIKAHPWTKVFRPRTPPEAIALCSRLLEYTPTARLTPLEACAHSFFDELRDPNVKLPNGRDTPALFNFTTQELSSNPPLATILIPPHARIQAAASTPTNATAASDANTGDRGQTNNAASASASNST
T3 sequence (P49840 whole entry): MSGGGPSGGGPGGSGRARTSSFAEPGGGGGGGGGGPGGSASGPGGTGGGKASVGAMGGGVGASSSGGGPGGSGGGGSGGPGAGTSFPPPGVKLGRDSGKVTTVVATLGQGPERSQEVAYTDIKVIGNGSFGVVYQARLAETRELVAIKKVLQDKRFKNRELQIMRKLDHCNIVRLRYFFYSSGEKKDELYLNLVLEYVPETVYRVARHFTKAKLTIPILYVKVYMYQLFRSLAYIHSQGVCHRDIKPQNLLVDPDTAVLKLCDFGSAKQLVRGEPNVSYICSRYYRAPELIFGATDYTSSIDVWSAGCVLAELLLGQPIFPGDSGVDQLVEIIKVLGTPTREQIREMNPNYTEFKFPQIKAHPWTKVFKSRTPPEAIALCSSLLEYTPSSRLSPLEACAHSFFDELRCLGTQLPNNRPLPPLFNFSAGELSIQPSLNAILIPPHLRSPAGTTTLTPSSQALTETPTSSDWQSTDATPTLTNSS
T2 sequence (P48730 whole entry): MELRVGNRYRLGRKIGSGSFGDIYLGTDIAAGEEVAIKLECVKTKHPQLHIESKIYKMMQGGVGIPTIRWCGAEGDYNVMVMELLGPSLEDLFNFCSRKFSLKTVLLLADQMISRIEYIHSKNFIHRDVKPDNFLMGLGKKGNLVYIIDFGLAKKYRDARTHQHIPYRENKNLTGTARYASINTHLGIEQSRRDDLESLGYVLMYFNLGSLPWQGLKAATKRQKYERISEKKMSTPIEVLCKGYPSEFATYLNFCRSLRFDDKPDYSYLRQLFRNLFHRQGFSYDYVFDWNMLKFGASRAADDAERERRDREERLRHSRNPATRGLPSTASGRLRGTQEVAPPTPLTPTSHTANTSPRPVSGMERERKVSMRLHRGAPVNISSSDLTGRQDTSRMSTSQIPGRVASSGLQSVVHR
CDK9, sequence (P50750 whole entry): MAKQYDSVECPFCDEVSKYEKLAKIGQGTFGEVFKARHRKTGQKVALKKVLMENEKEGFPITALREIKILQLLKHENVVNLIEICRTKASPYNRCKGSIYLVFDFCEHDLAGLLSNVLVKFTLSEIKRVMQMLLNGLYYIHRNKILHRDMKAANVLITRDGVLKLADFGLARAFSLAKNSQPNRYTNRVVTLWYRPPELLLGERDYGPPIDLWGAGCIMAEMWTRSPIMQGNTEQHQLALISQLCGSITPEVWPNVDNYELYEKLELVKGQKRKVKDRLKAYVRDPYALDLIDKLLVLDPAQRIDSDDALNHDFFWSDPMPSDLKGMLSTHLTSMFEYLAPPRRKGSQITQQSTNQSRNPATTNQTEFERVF
CDK9, sequence (O60563 whole entry partner): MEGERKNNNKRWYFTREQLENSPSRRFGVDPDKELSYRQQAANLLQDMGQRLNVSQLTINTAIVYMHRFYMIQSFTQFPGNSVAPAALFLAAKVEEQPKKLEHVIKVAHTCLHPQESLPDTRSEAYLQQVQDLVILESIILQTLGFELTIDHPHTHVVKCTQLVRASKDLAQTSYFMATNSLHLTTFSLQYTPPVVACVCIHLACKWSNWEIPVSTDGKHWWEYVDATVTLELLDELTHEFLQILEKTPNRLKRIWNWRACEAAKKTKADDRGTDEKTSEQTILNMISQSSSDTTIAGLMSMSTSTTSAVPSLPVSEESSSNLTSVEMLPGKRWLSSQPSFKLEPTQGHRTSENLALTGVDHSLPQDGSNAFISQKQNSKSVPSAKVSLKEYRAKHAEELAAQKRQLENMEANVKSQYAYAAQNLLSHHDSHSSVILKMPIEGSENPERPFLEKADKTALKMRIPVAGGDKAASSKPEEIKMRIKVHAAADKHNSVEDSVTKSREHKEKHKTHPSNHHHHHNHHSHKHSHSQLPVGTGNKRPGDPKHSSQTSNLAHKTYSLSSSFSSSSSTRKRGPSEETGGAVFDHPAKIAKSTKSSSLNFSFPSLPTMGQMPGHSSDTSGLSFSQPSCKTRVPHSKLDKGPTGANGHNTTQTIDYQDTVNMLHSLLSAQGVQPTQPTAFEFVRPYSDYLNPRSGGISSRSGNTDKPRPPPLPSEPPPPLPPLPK
LIMK1, sequence (P53667 whole entry): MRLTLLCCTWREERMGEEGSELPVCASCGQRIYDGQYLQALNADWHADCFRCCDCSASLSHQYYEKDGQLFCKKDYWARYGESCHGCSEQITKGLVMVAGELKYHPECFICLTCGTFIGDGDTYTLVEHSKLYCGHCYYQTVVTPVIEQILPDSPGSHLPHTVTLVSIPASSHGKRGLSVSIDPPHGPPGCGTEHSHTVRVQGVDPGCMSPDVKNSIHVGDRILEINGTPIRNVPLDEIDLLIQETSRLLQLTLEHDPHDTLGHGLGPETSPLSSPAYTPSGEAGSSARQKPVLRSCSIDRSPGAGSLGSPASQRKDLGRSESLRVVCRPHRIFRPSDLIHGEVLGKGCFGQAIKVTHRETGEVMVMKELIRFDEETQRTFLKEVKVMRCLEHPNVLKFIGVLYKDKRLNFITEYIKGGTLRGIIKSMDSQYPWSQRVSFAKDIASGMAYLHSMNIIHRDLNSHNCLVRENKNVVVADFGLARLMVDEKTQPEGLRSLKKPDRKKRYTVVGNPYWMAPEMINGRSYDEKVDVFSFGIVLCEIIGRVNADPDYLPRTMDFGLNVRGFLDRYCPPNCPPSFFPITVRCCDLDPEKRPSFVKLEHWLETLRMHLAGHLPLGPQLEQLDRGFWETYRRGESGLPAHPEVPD
CDK5, sequence (Q00535 whole entry): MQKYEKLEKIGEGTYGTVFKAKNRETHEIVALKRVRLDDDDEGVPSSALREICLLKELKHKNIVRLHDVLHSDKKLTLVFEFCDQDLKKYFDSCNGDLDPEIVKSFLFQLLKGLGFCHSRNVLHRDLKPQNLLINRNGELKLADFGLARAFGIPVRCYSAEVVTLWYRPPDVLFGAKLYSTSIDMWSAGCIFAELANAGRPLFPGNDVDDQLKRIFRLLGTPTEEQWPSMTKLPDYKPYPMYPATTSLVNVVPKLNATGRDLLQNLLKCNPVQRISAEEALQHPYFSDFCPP
CDK5, sequence (Q15078 99-307 partner): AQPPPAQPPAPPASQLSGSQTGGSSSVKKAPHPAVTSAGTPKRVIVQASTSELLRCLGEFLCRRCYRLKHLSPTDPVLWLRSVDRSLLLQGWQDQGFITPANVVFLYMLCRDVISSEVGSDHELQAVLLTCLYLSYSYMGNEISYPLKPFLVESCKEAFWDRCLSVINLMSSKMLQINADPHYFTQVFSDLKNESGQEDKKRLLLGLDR
Erk5, sequence (Q13164 whole entry): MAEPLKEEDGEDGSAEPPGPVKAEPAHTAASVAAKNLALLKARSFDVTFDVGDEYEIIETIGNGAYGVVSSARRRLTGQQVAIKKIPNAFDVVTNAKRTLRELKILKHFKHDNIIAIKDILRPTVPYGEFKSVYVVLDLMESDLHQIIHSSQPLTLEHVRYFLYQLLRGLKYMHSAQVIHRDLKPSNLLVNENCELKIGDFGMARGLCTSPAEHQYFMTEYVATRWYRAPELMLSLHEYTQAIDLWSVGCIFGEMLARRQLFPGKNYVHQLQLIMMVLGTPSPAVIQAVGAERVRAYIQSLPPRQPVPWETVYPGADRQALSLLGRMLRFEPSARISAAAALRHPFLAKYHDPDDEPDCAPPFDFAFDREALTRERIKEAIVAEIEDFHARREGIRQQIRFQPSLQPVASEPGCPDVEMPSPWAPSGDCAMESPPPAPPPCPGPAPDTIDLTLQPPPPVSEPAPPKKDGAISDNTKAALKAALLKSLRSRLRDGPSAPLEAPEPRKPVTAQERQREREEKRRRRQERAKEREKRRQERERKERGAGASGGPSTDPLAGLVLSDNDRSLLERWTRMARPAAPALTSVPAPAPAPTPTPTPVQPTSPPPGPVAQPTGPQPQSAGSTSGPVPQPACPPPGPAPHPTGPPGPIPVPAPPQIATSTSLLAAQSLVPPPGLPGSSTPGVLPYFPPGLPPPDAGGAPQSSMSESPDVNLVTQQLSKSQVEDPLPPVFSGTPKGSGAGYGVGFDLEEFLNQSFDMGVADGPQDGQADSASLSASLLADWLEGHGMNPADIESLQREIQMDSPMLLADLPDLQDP
PLK1, sequence (P53350 whole entry): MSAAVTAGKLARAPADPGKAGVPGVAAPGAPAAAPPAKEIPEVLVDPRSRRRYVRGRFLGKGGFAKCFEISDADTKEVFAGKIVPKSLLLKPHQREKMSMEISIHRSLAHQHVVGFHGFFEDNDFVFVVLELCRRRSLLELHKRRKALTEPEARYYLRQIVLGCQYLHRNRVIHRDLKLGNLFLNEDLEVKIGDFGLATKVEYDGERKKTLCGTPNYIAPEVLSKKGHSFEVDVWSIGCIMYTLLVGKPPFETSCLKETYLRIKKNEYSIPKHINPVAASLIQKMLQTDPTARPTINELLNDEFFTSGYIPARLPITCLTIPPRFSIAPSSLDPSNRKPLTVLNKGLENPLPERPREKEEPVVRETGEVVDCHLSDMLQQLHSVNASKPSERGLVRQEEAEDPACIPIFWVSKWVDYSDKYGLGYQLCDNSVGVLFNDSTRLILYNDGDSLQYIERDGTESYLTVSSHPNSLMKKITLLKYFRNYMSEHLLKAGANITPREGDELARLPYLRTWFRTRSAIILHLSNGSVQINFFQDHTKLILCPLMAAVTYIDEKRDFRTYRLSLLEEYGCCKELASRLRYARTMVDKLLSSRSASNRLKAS
Description for CDK5/p25: Biochemical characterization of these synthesized compounds were assayed against GSK3β and CDK5/p25, with CDK5/p25 serving as a counter target of GSK3β selectivity. […] The effects of these compounds on survival of SH-SY5Y pathophysiology cells were also monitored.
Description for CDK9: (§7) Briefly, a selection of compounds was screened against a panel of kinases at a single concentration of 10 μM. […] This was completed utilizing one of two assays depending on the kinase being examined.
(§8) Test compounds were dissolved in and diluted with dimethylsulfoxide (DMSO) to generate a 100× sample solution. These were then diluted to 4× sample solutions in assay buffer to make the final test compound solutions. Reference compounds for assay control were prepared similarly.
(§9) A solution of IMAP binding reagent (IMAP Screening Express kit; Molecular Devices) (60 μL) was added to each well and incubated for 30 minutes.
(§10) A solution of termination buffer (QuickScout Screening assist MSA; Carna Biosciences) (60 μL) was added to each well. The entire reaction mixture was then applied to a LabChip3000 system (Caliper Life Science) and the product and substrate peptide peaks were separated and quantified.
Description for Erk5: as §7, §8, §9, §10
Description for LIMK1: as §7, §8, §9, §10
Description for PLK1: as §7, §8, §9, §10
Description for in vitro: as §6
Description for panel of 311 kinases: as §7, §8, §9, §10

Turning to `COc1ccccc1C1C2=C(CC(C)(C)CC2=O)Nc2n[nH]c(C)c21` (racemic) [Compound 20, 4-(2-methoxyphenyl)-3,7,7-trimethyl-6,7,8,9-tetrahydro-1H-pyrazolo[3,4-b]quinolin-5(4H)-one], under “mouse plasma, 5 hours”, the “Plasma stability % remaining (in mice)” value is on record as 87.2%. Further, the IC50 on GSK3β [1] was 0.101 to 1 µM; against GSK3β [2], less than 0.1 µM; against GSK3α [6], less than 0.1 µM. This compound also gave a fraction unbound at 5 h, 5 µM in the data set “in vitro” of 0.229. Moreover, the solubility at 24 h in “physchem” worked out at 130 µM (≈ 43.9 µg/mL). Also, the equilibrium dissociation constant (Kd) was 0.06 µM at GSK3β [3], 5 to 30 µM on CK1δ [4] and less than 0.1 µM on GSK3β [5]. The “ADP Glo Assay GSK3β vs CDK5 fold selectivity” value on CDK5/p25 came to 57X.
As to `CC1(C)CC(=O)C2=C(C1)Nc1n[nH]c(C(F)(F)F)c1C2(C)c1ccccc1` (single isomer, unassigned) [Compound 70, 4,7,7-trimethyl-4-phenyl-3-(trifluoromethyl)-6,7,8,9-tetrahydro-2H-pyrazolo[3,4-b]quinolin-5(4H)-one], in the data set on AML cell lines, the “morphological changes in AML cell lines” value is listed as “cellular differentiation”. Further, in the data set with HL-60 and U937 cells, the “gene expression signature (32-gene differentiation score)” value is recorded as “induced a gene expression signature in AML cell lines consistent with myeloid differentiation”. In addition, the concentration for half-maximal inhibition (IC50) at GSK3α [7] and against GSK3β [9] was less than 0.1 µM each time. In addition, the “effect on amphetamine-induced hyperactivity, intraperitoneal injection” value in data set [8] (systemic intraperitoneal injection) was “attenuate amphetamine-induced hyperactivity”. In data set [10], the “pharmacokinetic profile (systemic exposure and brain distribution) compared to CHIR99021” value is reported as “improved pharmacokinetic profile”.
Consider `Cc1c[nH]c(-c2cnc(NCCNc3ccc(C#N)cn3)nc2-c2ccc(Cl)cc2Cl)n1` [CHIR99021], for which the “Microsomal Stability (M:)” value in data set [11] is reported as “M: 4%”. In addition, in data set [12], the EC50 amounted to 6 µM. Further, the “% Inhibition at 10 μM, CDK5” value at CDK5 (10 μM) is 51.2%. Besides, the “% Inhibition at 10 μM, PLK1” value on PLK1 was found to be 59.2%. Also, the “% Inhibition at 10 μM, Erk5” value on Erk5 is on record as 61.3%. In the data set with panel of 311 kinases, the “number of kinases inhibited greater than 50% at 10 μM” value is on record as 21 kinases. The “% Inhibition at 10 μM, CDK9” value on CDK9 was 88.1%; on CDK9 (listed as CHIR 99021), “greater than 50%”. For the same compound, the “% Inhibition at 10 μM, LIMK1” value at LIMK1 is 78.9%; at LIMK1 (listed as CHIR 99021) it was “greater than 50%”.
Consider `Cc1[nH]nc2c1C(c1ccc(F)cc1)C1=C(CC(C)(C)CC1=O)N2` (stereo not drawn) [Compound 12, 4-(4-fluorophenyl)-3,7,7-trimethyl-6,7,8,9-tetrahydro-1H-pyrazolo[3,4-b]quinolin-5(4H)-one], for which the IC50 at GSK3β [1], at GSK3β [2] and against GSK3α [6] was 1 to 5 µM throughout. Besides, the dissociation constant Kd on CK1δ [13] was less than 0.1 µM; at GSK3β [3] it was 1 to 5 µM.
Regarding `COc1ccccc1[C@@H]1C2=C(CC(C)(C)CC2=O)Nc2n[nH]c(C)c21` [Compound 22], the IC50 at GSK3β [14] is less than 0.1 µM; on GSK3α [7], less than 0.1 µM; at CDK5 (dose response) it was 1.4 µM; on GSK3α [15] it was 0.027 µM; at GSK3β [17] it was 0.061 µM. Further, the “effect on amphetamine-induced hyperactivity, ICV injection” value in data set [8] (intracerebroventricular injection) was “attenuate amphetamine-induced hyperactivity”. Further, the “mode of inhibition (Lineweaver-Burk plot)” value on GSK3β [16] is reported as “competitive inhibition”.
In the case of `Cc1[nH]nc2c1C(c1ccccc1)(C(F)(F)F)C1=C(CC(C)(C)CC1=O)N2` (stereo not drawn) [Compound 83], the “Plasma stability % remaining (in mice)” value (mouse, plasma, 5 h) came out at 1016%. The “Protein binding % bound (in mice)” value in data set [18] is 89.8%. This compound had a half-maximal inhibitory concentration (IC50) against GSK3β [9] of less than 0.1 µM.
Consider Lithium, for which the IC50 in the data set on GSK3 was 2000 µM.
